IC50 data for 13 molecules are collected here from patent US12202835B2, “Substituted aromatic ring-linked dioxinoquinazolines and dioxinoquinolines as kinase inhibitors” (BEIJING SCITECH-MQ PHARMACEUTICALS LIMITED, priority 2018, dated 2025).

Common to all, as to type: biochemical
For experiment [1], the target named is TRKA kinase (Homo sapiens (Human), UniProt P04629). In words: Assay of small molecular compounds for inhibiting the activity of TRKA kinase (LANCE TR-FRET). On the procedure:
The assay of small molecular compounds for inhibiting the activity of TRKA kinase is based on the LANCE TR-FRET technology of Perkin Elmer Inc., and the assay method is as follows: • 1. […] 2.5 μL of the gradient-diluted compounds were taken with a transfer pipette to a 384-well plate. • 3. Addition of enzyme: 5 μL of 2×TRKA kinase solution (with a concentration of 2 nM) was taken with a transfer pipette to the corresponding reaction well of the 384-well plate, mixed well and pre-reacted at room temperature for 5 minutes. • 4. 2.5 μL 4× Ultra ULight-labeled TK Peptide (with a concentration of 400 nM)/ATP (with a concentration of 40 μM) mixture was taken with a transfer pipette to the corresponding reaction well of the 384-well plate. • 5. Negative control: 2.5 μL/well 4× substrate/ATP mixture and 7.5 μL 1× Kinase Assay Buffer were added to the wells of the 384-well plate.
(§1) Positive control: 2.5 μL/well 4× substrate/ATP mixture, 2.5 μL/well 1× Kinase Assay Buffer containing 4% DMSO, and 5 μL/well 2×TRKA kinase solution were added to the 384-well plate. The final concentration of DMSO in the reaction system was 1%. • 6. The mixture was mixed well and then centrifuged and reacted at room temperature in dark for 60 min. • 7. Termination of the enzymatic reaction: 5 μL of 4× stop solution was taken with a transfer pipette to the wells of the 384-well plate, mixed and then centrifuged, and reacted at room temperature for 5 min. • 8. Development of the reaction: 5 μL of 4× detection solution was taken with a transfer pipette to the wells of the 384-well plate for color development, and the mixture was mixed and then centrifuged and reacted at room temperature for 60 min. • 9. The 384-well plate was placed into the Envision plate reader and the signal was detected using the appropriate program.

Experiment [2] has as its target c-MET kinase (Homo sapiens (Human), UniProt P08581). In words: Assay of small molecular compounds for inhibiting the activity of c-MET kinase (LANCE TR-FRET). Conditions: read-out: CMET IC50. On the procedure: The assay is based on the LANCE TR-FRET technology of Perkin Elmer Inc., and the assay method is as follows: • 1. Dilution of compounds: a total of 11 concentrations were obtained using a 3-fold gradient dilution from the highest concentration of 2500 nM (the maximum final concentration of the drug used in this assay was 2500 nM, and the minimum final concentration was 0.042 nM). • 2. 2.5 μL of the gradient-diluted compounds were taken with a transfer pipette to a 384-well plate. • 3. Addition of enzyme: 5 μL of 2×c-MET kinase solution (with a concentration of 2 nM) was taken with a transfer pipette to the corresponding reaction well of the 384-well plate, mixed well and pre-reacted at room temperature for 5 minutes. • 4. 2.5 μL 4× Ultra ULight™-JAK-1 (Tyr1023) Peptide (with a concentration of 400 nM)/ATP (with a concentration of 40 μM) mixture was taken with a transfer pipette to the corresponding reaction well of the 384-well plate. • 5. Negative control: 2.5 μL/well 4× substrate/ATP mixture and 7.5 μL 1× Kinase Assay Buffer were added to the wells of the 384-well plate. • 6. Positive control: 2.5 μL/well 4× substrate/ATP mixture, 2.5 μL/well 1× Kinase Assay Buffer containing 16% DMSO, and 5 μL/well 2× c-MET kinase solution were added to the 384-well plate. The final concentration of DMSO in the reaction system was 4%. • 7. The mixture was mixed well and then centrifuged and reacted at room temperature in dark for 60 min. • 8. Termination of the enzymatic reaction: 5 μL of 4× stop solution was taken with a transfer pipette to the wells of the 384-well plate, mixed and then centrifuged, and reacted at room temperature for 5 min. • 9. Development of the reaction: 5 μL of 4× detection solution was taken with a transfer pipette to the wells of the 384-well plate for color development, and the mixture was mixed and then centrifuged and reacted at room temperature for 60 min. • 10. The 384-well plate was placed into the Envision plate reader and the signal was detected using the appropriate program. • 11. Analysis and processing of the raw data: • 12. The drug concentrations and the corresponding inhibition rates were input into GraphPad Prism5 for calculation, and the inhibition rate of the compounds were calculated as follows: inhibition rate (%)=(reading of positive well−reading of experimental well)/(reading of positive control well−reading of negative control well)×100%. Processing with GraphPad Prism5 software yielded the corresponding IC50 values (the concentration of the compound at which 50% of the highest inhibition of the enzyme is achieved).
For orientation: Time-resolved FRET reads energy transfer from a long-lived donor to a nearby acceptor.

Experiment [3] concerns the target MER kinase (Homo sapiens (Human), UniProt Q12866). In words: Assay of small molecular compounds for inhibiting the activity of MER kinase (LANCE TR-FRET). On the procedure:
The assay of small molecular compounds for inhibiting the activity of MER kinase is based on the LANCE TR-FRET technology of Perkin Elmer Inc., and the assay method is as follows: • 1. Dilution of compounds: a total of 11 concentrations were obtained using a 3-fold gradient dilution from the highest concentration of 2500 nM (the maximum final concentration of the drug used in this assay was 2500 nM, and the minimum final concentration was 0.042 nM). • 2. 2.5 μL of the gradient-diluted compounds were taken with a transfer pipette to a 384-well plate. • 3. Addition of enzyme: 5 μL of 2×MER kinase solution (with a concentration of 1 nM) was taken with a transfer pipette to the corresponding reaction well of the 384-well plate, mixed well and pre-reacted at room temperature for 5 minutes. • 4. 2.5 μL 4× ULight-labeled Ploy GT (with a concentration of 200 nM)/ATP (with a concentration of 20 μM) mixture was taken with a transfer pipette to the corresponding reaction well of the 384-well plate. • 5. Negative control: 2.5 μL/well 4× substrate/ATP mixture and 7.5 μL 1× Kinase Assay Buffer were added to the wells of the 384-well plate.
as §1, with “2×MER” for “2×TRKA”, “program. • 10. Analysis and processing of the raw data:” for “program.”
The drug concentrations and the corresponding inhibition rates were input into GraphPad Prism5 for calculation, and the inhibition rate of the compounds were calculated as follows: inhibition rate (%)=(reading of positive well−reading of experimental well)/(reading of positive control well−reading of negative control well)×100%. Processing with GraphPad Prism5 software yielded the corresponding IC50 values (the concentration of the compound at which 50% of the highest inhibition of the enzyme is achieved).

Chain of c-MET kinase (P08581 25-1390): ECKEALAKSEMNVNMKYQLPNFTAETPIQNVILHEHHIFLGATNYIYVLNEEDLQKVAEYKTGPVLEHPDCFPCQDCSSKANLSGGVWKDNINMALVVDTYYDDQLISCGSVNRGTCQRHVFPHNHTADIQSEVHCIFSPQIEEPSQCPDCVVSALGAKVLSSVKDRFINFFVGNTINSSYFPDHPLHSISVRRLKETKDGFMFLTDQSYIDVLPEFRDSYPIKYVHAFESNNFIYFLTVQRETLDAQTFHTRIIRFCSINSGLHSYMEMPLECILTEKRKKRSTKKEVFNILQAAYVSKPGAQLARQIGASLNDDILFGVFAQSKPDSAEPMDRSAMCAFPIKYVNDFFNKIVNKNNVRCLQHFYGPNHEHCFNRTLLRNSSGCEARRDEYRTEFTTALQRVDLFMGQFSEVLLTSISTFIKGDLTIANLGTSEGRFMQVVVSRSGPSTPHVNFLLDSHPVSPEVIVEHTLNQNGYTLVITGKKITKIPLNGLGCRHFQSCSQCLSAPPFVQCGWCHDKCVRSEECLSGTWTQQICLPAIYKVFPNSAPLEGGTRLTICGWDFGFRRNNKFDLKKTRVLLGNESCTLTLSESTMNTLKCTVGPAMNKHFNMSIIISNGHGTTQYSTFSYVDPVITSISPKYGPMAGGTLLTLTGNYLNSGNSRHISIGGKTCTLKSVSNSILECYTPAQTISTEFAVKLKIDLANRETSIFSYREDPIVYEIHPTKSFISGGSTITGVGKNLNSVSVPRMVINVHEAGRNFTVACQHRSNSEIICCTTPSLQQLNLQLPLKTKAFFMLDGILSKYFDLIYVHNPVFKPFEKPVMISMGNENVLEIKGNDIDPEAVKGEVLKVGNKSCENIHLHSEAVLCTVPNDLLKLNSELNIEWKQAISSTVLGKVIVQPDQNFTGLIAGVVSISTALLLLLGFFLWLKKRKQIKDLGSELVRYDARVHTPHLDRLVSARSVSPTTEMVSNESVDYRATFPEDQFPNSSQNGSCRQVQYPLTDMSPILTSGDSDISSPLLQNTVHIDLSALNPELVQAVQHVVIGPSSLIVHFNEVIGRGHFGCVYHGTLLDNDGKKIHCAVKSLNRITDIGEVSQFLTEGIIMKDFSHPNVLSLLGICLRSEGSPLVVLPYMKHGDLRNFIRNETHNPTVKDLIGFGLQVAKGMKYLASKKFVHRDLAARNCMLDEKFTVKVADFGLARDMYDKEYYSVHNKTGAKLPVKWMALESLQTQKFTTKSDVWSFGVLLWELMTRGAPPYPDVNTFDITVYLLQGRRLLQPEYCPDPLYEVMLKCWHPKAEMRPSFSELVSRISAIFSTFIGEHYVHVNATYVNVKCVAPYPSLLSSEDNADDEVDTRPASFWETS
Chain of TRKA kinase (P04629 33-796): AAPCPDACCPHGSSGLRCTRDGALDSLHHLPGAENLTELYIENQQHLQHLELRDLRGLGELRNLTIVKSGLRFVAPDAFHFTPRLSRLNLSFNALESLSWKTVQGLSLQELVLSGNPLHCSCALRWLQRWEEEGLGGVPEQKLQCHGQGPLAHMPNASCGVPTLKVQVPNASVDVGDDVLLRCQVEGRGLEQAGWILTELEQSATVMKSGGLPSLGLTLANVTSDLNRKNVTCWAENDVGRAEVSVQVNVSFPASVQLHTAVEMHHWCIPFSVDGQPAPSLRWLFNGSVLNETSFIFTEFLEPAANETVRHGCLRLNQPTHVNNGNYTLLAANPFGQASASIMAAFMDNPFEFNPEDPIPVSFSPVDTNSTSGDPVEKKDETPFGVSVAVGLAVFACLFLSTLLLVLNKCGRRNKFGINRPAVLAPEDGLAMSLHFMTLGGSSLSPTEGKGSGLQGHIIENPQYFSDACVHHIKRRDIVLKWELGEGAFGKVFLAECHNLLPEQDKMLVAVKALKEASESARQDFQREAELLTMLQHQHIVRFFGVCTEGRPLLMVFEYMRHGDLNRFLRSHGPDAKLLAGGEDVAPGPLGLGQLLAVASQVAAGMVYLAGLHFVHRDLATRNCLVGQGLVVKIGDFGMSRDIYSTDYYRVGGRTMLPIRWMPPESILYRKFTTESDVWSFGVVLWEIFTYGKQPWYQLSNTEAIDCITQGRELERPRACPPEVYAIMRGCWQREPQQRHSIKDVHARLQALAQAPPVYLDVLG
Chain of MER kinase (Q12866 21-999): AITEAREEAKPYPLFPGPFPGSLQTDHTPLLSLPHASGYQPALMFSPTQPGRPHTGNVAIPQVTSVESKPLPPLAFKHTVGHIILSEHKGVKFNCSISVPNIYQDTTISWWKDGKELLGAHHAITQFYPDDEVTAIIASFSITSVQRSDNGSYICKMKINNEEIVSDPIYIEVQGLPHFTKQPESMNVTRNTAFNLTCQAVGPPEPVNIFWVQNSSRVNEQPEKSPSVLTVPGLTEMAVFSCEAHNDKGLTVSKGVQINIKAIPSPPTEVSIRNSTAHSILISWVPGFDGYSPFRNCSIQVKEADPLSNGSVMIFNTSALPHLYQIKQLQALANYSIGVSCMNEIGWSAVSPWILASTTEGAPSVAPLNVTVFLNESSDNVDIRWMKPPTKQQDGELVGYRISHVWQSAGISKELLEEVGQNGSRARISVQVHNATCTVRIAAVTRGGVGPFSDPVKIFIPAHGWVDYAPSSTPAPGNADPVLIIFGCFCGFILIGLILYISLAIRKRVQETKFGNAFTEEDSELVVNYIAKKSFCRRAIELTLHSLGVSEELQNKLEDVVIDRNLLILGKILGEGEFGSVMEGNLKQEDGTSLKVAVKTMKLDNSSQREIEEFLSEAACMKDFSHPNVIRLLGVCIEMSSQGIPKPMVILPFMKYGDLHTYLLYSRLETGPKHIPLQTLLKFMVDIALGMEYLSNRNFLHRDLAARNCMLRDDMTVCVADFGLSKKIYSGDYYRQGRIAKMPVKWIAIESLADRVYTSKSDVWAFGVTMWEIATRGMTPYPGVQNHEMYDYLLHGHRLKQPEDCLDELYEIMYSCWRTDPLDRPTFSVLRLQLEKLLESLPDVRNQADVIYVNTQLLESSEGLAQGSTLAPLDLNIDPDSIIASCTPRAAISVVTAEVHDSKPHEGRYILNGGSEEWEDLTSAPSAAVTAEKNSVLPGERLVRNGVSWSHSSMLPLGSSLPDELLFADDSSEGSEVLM

For the molecule `CCn1cc(C(=O)Nc2cc(F)c(Oc3ccnc4ccc5c(c34)OCCO5)cc2C)c(=O)n(-c2ccc(F)cc2)c1=O` [Example 176, N-(4-((2,3-dihydro-[1,4]dioxino[2,3-f]quinolin-10-yl)oxy)-5-fluoro-2-methylphenyl)-3-(4-fluorophenyl)-1-ethyl-2,4-dioxo-1,2,3,4-tetrahydropyrimidine-5-carboxamide], in experiment [1], the IC50 (as a rule, the concentration that gives 50% inhibition) is 50 to 500 nM.

With `COc1ccn(-c2ccc(F)cc2)c(=O)c1C(=O)Nc1ccc(Oc2ccnc3ccc4c(c23)OCCO4)c(F)c1` [Example 167, N-(4-((2,3-dihydro-[1,4]dioxino[2,3-f]quinolin-10-yl)oxy)-3-fluorophenyl)-1-(4-fluorophenyl)-4-methoxy-2-oxo-1,2-dihydropyridine-3-carboxamide], the IC50 was 50 to 500 nM in experiment [1] and at most 50 nM in experiment [2].

In experiment [1], `CCn1cc(C(=O)Nc2ccc(Oc3ccnc4ccc5c(c34)OCCO5)c(F)c2)c(=O)n(-c2ccc(F)cc2)c1=O` [Example 161, N-(4-((2,3-dihydro-[1,4]dioxino[2,3-f]quinolin-10-yl)oxy)-3-fluorophenyl)-3-(4-fluorophenyl)-1-ethyl-2,4-dioxo-1,2,3,4-tetrahydropyrimidine-5-carboxamide] gave an IC50 of 50 to 500 nM.

With `CCOc1ccn(-c2ccc(F)cc2)c(=O)c1C(=O)Nc1ccc(Oc2ccnc3ccc4c(c23)OCCO4)cc1` [Example 164, N-(4-((2,3-dihydro-[1,4]dioxino[2,3-f]quinolin-10-yl)oxy)phenyl)-4-ethoxy-1-(4-fluorophenyl)-2-oxo-1,2-dihydropyridine-3-carboxamide], the IC50 in experiment [1] was 50 to 500 nM; in experiment [2] it was at most 50 nM.

The molecule `CCn1cc(C(=O)Nc2cc(F)c(Oc3ccnc4ccc5c(c34)OCCO5)cc2Cl)c(=O)n(-c2ccc(F)cc2)c1=O` [Example 174, N-(2-chloro-4-((2,3-dihydro-[1,4]dioxino[2,3-f]quinolin-10-yl)oxy)-5-fluorophenyl)-3-(4-fluorophenyl)-1-ethyl-2,4-dioxo-1,2,3,4-tetrahydropyrimidine-5-carboxamide] registered a concentration for half-maximal inhibition (IC50) in experiment [1] below 50 nM.

Consider `COc1cc2ncnc(Oc3ccc(NC(=O)c4ccn(-c5ccc(F)cc5C)n4)cc3F)c2c2c1OCCO2` [Example 7, 1-(4-fluoro-2-methylphenyl)-N-(3-fluoro-4-((5-methoxy-2,3-dihydro-[1,4]dioxino[2,3-f]quinazolin-10-yl)oxy)phenyl)-1H-pyrazole-3-carboxamide], for which the IC50 in experiment [2] is 50 to 500 nM; in experiment [3], 500 to 5000 nM.

`CCn1cc(C(=O)Nc2ccc(Oc3ccnc4ccc5c(c34)OCCO5)cc2F)c(=O)n(-c2ccc(F)cc2)c1=O` [Example 163, N-(4-((2,3-dihydro-[1,4]dioxino[2,3-f]quinolin-10-yl)oxy)-2-fluorophenyl)-3-(4-fluorophenyl)-1-ethyl-2,4-dioxo-1,2,3,4-tetrahydropyrimidine-5-carboxamide] gave an IC50 in experiment [1] of 50 to 500 nM.

Regarding `O=C(Nc1ccc(Oc2ccnc3ccc4c(c23)OCCO4)cc1)c1cccn(-c2ccc(F)cc2)c1=O` [Example 165, N-(4-((2,3-dihydro-[1,4]dioxino[2,3-f]quinolin-10-yl)oxy)phenyl)-1-(4-fluorophenyl)-2-oxo-1,2-dihydropyridine-3-carboxamide], the IC50 was 50 to 500 nM in experiment [1] and at most 50 nM in experiment [2].

`Cn1cc(C(=O)Nc2ccc(Oc3ccnc4ccc5c(c34)OCCO5)c(F)c2)c(=O)n(-c2ccc(F)cc2)c1=O` [Example 160, N-(4-((2,3-dihydro-[1,4]dioxino[2,3-f]quinolin-10-yl)oxy)-3-fluorophenyl)-3-(4-fluorophenyl)-1-methyl-2,4-dioxo-1,2,3,4-tetrahydropyrimidine-5-carboxamide] returned an IC50 in experiment [1] of 50 to 500 nM.

In experiment [1], `CCOc1ccn(-c2ccc(F)cc2)c(=O)c1C(=O)Nc1ccc(Oc2ccnc3ccc4c(c23)OCCO4)c(F)c1` [Example 168, N-(4-((2,3-dihydro-[1,4]dioxino[2,3-f]quinolin-10-yl)oxy)-3-fluorophenyl)-1-(4-fluorophenyl)-4-ethoxy-2-oxo-1,2-dihydropyridine-3-carboxamide] registered an IC50 of 50 to 500 nM.

Take `COc1cc2nccc(Oc3ccc(NC(=O)c4cn(C(C)C)c(=O)n(C5CCCCC5)c4=O)cc3F)c2c2c1OCCO2` [Example 157, N-(3-fluoro-4-((5-methoxy-2,3-dihydro-[1,4]dioxino[2,3-f]quinolin-10-yl)oxy)phenyl)-3-cyclohexyl-1-isopropyl-2,4-dioxo-1,2,3,4-tetrahydropyrimidine-5-carboxamide]: the figures for the IC50 in experiment [1] and in experiment [3] were 500 to 5000 nM and 50 to 500 nM, respectively.

Molecule `Cn1cc(C(=O)Nc2cc(F)c(Oc3ccnc4ccc5c(c34)OCCO5)cc2Cl)c(=O)n(-c2ccc(F)cc2)c1=O` [Example 173, N-(2-chloro-4-((2,3-dihydro-[1,4]dioxino[2,3-f]quinolin-10-yl)oxy)-5-fluorophenyl)-3-(4-fluorophenyl)-1-methyl-2,4-dioxo-1,2,3,4-tetrahydropyrimidine-5-carboxamide] came in with an IC50 in experiment [1] of 50 to 500 nM.

Consider `COc1ccn(-c2ccc(F)cc2)c(=O)c1C(=O)Nc1ccc(Oc2ccnc3ccc4c(c23)OCCO4)cc1` [Example 166, N-(4-((2,3-dihydro-[1,4]dioxino[2,3-f]quinolin-10-yl)oxy)phenyl)-4-methoxy-1-(4-fluorophenyl)-2-oxo-1,2-dihydropyridine-3-carboxamide], for which the IC50 in experiment [1] and in experiment [2] was 50 to 500 nM in each case.
